Legend:
[1] = target: Mitogen-activated protein kinase 10 (Homo sapiens, UniProt P53779); experiment: Inhibition of JNK3 by spectrophotometric coupled enzyme assay
[2] = target: Mitogen-activated protein kinase 14 (Homo sapiens, UniProt Q16539); experiment: Inhibition of p38alpha by spectrophotometric coupled enzyme assay
[3] = target: Mitogen-activated protein kinase 1 (Homo sapiens, UniProt P28482); experiment: Inhibition of ERK2 by spectrophotometric coupled enzyme assay
[4] = target: Mitogen-activated protein kinase 9 (Homo sapiens, UniProt P45984); experiment: Inhibition of JNK2
Sequence of Mitogen-activated protein kinase 9 (P45984 whole entry): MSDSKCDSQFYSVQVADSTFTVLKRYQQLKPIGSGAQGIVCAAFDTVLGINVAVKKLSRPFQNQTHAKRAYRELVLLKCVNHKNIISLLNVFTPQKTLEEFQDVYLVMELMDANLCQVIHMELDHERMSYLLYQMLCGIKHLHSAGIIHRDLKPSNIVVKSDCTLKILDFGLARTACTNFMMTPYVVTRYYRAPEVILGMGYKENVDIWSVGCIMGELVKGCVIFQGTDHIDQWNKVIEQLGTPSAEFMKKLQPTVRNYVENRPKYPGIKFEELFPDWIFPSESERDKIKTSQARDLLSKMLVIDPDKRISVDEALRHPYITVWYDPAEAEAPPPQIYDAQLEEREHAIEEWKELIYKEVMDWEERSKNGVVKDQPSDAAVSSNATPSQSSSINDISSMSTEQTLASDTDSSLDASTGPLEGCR

[5] = target: Mitogen-activated protein kinase 8 (Homo sapiens, UniProt P45983); experiment: Inhibition of JNK1
Sequence of Mitogen-activated protein kinase 8 (P45983 whole entry): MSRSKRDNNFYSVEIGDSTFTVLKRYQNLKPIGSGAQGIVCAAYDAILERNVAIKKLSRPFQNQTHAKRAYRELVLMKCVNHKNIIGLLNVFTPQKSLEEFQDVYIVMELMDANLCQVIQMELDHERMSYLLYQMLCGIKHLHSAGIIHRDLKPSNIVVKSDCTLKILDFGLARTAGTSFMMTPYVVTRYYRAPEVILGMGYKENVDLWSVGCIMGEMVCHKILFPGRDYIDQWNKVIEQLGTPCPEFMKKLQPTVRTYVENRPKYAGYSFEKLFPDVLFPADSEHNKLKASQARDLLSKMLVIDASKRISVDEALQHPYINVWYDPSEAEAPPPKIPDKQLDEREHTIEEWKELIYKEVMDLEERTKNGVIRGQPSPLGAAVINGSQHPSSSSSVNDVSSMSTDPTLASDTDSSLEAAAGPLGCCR

[6] = target: RAC-gamma serine/threonine-protein kinase (Homo sapiens, UniProt Q9Y243); experiment: Inhibition of AKT3
[7] = target: Cyclin-dependent kinase 2 (Homo sapiens, UniProt P24941); experiment: Inhibition of CDK2
[8] = target: T1, Receptor-type tyrosine-protein kinase FLT3 (Homo sapiens, UniProt P36888); experiment: Inhibition of FLT3
T1 sequence (P36888 whole entry): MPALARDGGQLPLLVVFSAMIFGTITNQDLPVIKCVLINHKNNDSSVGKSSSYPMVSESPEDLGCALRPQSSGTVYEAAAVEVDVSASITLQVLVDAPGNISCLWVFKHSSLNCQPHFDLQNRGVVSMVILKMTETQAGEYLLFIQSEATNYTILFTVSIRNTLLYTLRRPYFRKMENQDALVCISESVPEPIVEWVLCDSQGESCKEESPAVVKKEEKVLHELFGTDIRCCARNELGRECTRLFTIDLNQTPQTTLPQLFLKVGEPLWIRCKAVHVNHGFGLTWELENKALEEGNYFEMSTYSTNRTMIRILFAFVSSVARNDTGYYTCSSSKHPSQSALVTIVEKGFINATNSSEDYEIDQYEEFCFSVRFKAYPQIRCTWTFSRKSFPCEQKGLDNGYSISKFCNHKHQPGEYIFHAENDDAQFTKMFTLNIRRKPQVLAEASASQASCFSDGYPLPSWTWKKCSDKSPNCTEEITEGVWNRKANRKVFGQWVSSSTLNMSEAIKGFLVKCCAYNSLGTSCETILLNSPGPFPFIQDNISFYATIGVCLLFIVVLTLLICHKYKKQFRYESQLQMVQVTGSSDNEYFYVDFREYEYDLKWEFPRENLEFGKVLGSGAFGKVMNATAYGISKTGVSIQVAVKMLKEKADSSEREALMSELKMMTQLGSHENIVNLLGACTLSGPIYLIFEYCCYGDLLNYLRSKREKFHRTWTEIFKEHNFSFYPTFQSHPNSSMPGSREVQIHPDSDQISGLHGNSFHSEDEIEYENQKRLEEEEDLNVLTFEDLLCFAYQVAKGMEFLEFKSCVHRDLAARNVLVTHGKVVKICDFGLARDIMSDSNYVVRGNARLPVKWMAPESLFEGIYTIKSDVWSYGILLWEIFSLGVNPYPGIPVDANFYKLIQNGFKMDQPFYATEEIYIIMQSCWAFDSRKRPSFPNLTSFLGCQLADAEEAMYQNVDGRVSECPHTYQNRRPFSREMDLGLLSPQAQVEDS

[9] = target: Glycogen synthase kinase-3 beta (Homo sapiens, UniProt P49841); experiment: Inhibition of GSK3-beta
Sequence of Glycogen synthase kinase-3 beta (P49841 whole entry): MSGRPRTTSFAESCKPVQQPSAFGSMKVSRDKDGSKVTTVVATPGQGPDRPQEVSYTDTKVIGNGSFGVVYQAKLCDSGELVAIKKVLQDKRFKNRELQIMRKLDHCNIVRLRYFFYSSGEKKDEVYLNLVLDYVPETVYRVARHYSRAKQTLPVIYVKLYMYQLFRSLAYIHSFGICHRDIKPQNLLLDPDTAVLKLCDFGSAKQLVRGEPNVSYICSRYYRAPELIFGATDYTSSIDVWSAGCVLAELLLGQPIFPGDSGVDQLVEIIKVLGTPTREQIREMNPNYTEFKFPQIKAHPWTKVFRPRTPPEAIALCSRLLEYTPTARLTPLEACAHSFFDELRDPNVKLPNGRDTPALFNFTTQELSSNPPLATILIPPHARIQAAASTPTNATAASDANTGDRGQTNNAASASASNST

[10] = target: T2, Tyrosine-protein kinase JAK3 (Homo sapiens, UniProt P52333); experiment: Inhibition of JAK3
T2 sequence (P52333 whole entry): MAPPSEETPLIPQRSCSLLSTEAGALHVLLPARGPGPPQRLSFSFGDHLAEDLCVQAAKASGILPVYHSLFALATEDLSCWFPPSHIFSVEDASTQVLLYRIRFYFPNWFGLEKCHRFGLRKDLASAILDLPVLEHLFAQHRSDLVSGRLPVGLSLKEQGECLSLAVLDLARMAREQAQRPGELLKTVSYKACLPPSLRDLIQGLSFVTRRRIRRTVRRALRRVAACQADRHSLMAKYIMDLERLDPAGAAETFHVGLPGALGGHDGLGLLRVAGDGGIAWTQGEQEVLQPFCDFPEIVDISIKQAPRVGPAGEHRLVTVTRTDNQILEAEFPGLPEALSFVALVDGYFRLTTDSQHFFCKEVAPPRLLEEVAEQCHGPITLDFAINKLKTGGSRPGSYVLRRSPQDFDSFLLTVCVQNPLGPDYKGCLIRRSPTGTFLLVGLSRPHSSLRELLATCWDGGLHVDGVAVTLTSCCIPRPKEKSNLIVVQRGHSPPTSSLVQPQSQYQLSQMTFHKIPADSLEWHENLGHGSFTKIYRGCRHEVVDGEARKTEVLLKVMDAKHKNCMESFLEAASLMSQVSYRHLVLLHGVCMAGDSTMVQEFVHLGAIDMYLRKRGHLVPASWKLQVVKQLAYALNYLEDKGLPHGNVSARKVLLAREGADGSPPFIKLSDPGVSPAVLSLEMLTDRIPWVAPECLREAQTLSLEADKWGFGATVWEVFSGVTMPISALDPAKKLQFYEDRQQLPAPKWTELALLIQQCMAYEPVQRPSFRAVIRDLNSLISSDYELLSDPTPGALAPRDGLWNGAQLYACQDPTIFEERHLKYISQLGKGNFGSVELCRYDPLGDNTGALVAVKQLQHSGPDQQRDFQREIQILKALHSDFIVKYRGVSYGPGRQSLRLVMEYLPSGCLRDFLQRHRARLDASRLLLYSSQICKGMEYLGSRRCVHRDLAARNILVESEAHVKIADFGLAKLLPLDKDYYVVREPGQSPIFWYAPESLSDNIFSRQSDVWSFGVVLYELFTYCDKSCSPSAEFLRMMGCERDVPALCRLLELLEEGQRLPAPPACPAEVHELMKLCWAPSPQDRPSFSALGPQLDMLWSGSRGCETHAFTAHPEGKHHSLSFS

[11] = target: Tyrosine-protein kinase Lck (Homo sapiens, UniProt P06239); experiment: Inhibition of LCK
[12] = target: Rho-associated protein kinase 1 (Homo sapiens, UniProt Q13464); experiment: Inhibition of ROCK1
Sequence of Rho-associated protein kinase 1 (Q13464 whole entry): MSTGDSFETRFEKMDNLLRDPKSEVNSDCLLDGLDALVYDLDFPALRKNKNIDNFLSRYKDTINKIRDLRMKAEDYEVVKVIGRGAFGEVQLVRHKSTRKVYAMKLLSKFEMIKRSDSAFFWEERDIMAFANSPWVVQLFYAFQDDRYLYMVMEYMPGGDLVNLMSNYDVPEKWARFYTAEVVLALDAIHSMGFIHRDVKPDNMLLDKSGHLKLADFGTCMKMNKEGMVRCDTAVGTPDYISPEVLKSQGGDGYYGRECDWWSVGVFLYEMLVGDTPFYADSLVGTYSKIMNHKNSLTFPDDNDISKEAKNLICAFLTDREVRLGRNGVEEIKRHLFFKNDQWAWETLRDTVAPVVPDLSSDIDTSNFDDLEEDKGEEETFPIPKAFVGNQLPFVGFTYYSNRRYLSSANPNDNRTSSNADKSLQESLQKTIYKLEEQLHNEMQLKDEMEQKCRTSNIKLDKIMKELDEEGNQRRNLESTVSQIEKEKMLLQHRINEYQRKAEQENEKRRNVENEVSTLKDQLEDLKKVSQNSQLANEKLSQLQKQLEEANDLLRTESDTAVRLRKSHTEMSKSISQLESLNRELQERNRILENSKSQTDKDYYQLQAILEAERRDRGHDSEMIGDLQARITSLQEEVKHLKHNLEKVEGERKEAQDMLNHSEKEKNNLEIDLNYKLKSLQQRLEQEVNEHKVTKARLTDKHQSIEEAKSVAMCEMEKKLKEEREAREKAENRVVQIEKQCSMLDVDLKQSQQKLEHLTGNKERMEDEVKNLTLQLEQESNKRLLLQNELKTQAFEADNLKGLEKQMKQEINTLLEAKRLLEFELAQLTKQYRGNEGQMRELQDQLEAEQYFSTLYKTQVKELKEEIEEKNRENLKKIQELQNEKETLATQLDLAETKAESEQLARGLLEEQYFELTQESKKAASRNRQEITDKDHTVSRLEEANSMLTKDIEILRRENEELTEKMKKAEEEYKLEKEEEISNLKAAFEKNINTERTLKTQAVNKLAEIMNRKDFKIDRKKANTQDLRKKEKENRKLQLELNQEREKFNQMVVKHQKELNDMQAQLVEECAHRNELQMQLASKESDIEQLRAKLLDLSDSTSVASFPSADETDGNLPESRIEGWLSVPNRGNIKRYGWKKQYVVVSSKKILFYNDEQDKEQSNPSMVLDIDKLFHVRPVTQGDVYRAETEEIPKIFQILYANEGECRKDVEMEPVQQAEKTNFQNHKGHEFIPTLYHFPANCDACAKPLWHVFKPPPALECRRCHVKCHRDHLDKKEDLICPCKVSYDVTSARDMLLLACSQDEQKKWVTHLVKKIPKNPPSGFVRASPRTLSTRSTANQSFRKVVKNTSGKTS

[13] = target: Proto-oncogene tyrosine-protein kinase Src (Homo sapiens, UniProt P12931); experiment: Inhibition of Src
[14] = target: Angiopoietin-1 receptor (Homo sapiens, UniProt Q02763); experiment: Inhibition of Tie2
Sequence of Angiopoietin-1 receptor (Q02763 whole entry): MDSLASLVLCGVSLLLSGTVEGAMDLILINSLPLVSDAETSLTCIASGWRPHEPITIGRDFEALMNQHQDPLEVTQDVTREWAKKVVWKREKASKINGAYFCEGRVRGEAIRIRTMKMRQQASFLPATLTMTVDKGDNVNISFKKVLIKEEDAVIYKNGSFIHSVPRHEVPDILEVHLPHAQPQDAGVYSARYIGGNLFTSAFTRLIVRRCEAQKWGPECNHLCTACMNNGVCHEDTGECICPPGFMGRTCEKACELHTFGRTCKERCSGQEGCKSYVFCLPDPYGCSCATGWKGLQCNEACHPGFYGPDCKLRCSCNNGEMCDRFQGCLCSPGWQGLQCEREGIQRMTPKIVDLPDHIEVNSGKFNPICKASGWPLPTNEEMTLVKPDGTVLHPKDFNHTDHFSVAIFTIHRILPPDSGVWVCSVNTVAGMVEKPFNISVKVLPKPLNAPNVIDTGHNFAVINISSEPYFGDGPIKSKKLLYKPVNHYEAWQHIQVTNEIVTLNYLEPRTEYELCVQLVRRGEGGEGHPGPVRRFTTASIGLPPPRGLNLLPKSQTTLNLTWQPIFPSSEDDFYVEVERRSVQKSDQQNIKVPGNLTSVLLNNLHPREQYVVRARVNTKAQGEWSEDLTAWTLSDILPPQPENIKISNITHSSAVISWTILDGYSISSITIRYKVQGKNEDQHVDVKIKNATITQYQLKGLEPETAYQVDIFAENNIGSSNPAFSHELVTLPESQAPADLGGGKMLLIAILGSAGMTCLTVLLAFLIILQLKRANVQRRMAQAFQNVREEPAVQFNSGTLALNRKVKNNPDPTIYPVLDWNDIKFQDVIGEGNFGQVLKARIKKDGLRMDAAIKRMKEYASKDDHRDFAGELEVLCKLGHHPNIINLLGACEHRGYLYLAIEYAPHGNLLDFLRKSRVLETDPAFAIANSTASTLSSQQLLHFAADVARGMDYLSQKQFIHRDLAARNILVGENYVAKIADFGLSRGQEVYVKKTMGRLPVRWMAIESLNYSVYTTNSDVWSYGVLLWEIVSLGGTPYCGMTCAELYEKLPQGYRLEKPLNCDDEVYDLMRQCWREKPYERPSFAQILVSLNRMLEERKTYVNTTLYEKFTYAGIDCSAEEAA

Sequence of Mitogen-activated protein kinase 10 (P53779 whole entry): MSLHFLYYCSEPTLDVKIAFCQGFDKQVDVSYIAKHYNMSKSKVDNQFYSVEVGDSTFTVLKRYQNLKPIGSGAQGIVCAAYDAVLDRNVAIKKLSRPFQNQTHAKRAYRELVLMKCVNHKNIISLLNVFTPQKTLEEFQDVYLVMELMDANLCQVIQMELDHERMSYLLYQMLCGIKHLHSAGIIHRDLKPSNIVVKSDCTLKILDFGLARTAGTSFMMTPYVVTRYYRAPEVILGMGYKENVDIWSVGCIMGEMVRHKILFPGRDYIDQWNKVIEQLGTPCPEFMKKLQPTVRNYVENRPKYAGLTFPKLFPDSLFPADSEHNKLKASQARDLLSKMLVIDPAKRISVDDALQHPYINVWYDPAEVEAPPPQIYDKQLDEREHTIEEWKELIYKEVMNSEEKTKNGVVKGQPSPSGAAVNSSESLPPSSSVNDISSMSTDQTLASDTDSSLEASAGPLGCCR
Sequence of Mitogen-activated protein kinase 1 (P28482 whole entry): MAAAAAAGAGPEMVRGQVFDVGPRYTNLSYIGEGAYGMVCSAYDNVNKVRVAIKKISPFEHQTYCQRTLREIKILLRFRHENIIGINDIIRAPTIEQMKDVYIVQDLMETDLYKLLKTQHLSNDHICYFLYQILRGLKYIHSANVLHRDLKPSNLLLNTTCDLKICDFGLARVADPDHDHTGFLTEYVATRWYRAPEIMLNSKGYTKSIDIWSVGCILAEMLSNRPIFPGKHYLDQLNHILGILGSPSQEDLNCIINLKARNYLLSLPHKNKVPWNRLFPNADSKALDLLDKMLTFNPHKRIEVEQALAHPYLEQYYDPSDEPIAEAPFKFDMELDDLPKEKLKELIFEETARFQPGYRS
Sequence of Mitogen-activated protein kinase 14 (Q16539 whole entry): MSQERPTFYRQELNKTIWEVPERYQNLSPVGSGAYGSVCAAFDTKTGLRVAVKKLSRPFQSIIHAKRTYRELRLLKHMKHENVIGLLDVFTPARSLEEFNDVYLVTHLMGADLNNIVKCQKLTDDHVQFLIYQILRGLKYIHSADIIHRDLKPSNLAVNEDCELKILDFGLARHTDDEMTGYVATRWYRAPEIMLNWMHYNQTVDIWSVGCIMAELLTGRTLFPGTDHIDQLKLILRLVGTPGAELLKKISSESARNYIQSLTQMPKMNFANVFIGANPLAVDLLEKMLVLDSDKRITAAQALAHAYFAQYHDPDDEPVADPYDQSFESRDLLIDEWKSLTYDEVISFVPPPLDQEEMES

Row | SMILES | Ki [1] | also measured
1 | O=Nc1c(O)n(Cc2cccc(C(F)(F)F)c2)c2ccccc12 | 5.2 µM | –
2 | O=Nc1c(O)n(Cc2ccc(Cl)cc2)c2ccccc12 | 6.7 µM | –
3 | O=Nc1c(O)n(Cc2cccc(Cl)c2)c2ccccc12 | 5 µM | –
4 | O=Nc1c(O)n(Cc2ccccc2)c2ccccc12 | > 10 µM | –
5 | Cc1ccc(Cn2c(O)c(N=O)c3ccccc32)cc1 | 9.9 µM | –
6 | O=C1/C(=N\O)c2c(-c3ccccc3)cccc2N1Cc1cc(F)cc2c1OCOC2 | – | Ki [2]: 9.5 µM; Ki [3]: 25 µM
7 | O=C1/C(=N\O)c2ccc(Br)cc2N1Cc1cc(F)cc2c1OCOC2 | 0.1 µM | –
8 | COc1cc(CN2C(=O)/C(=N\O)c3cc(F)ccc32)cc(OC)c1 | 0.79 µM | –
9 | Cc1ccc2c(c1)N(Cc1cc(F)cc3c1OCOC3)C(=O)/C2=N\O | 0.09 µM | Ki [2]: > 20 µM; Ki [3]: > 50 µM; Ki [4]: 0.07 µM; Ki [5]: 0.45 µM; Ki [6]: > 30 µM; Ki [7]: > 30 µM; Ki [8]: 4 µM; Ki [9]: > 30 µM; Ki [10]: > 30 µM; Ki [11]: > 30 µM; Ki [12]: > 30 µM; Ki [13]: > 30 µM; Ki [14]: > 10 µM
10 | O=C1/C(=N\O)c2cc(OC(F)(F)F)ccc2N1Cc1cc(F)cc2c1OCOC2 | 1.7 µM | –
11 | CCC(=O)Nc1ccc2c(c1)N(Cc1cc(F)cc3c1OCOC3)C(=O)/C2=N\O | 0.61 µM | –
12 | O=C1/C(=N\O)c2cc(Br)ccc2N1Cc1ccccc1 | 2.5 µM | –
13 | CCc1cccc2c1/C(=N/O)C(=O)N2Cc1cc(F)cc2c1OCOC2 | 1.4 µM | Ki [3]: > 15 µM
14 | N#Cc1cccc2c1/C(=N/O)C(=O)N2Cc1cc(F)cc2c1OCOC2 | 2 µM | –
15 | O=C1/C(=N\O)c2ccc(C(F)(F)F)cc2N1Cc1cc(F)cc2c1OCOC2 | 0.33 µM | –
16 | O=C(O)c1ccc2c(c1)N(Cc1cc(F)cc3c1OCOC3)C(=O)/C2=N\O | 0.3 µM | –
17 | O=C1/C(=N\O)c2c(-c3cccc(F)c3)cccc2N1Cc1cc(F)cc2c1OCOC2 | 5.8 µM | Ki [2]: 7.4 µM; Ki [3]: 23 µM
18 | Cc1cccc2c1/C(=N/O)C(=O)N2Cc1cc(F)cc2c1OCOC2 | 0.7 µM | Ki [3]: > 15 µM
19 | Cc1ccc2c(c1)/C(=N/O)C(=O)N2Cc1cccc(C(F)(F)F)c1 | 2.7 µM | –
20 | COC(=O)c1cccc2c1/C(=N/O)C(=O)N2Cc1cc(F)cc2c1OCOC2 | 30 µM | Ki [3]: > 15 µM
21 | O=C1/C(=N\O)c2cc(Cl)ccc2N1Cc1cc(F)cc2c1OCOC2 | 0.74 µM | –
22 | COc1ccc2c(c1)N(Cc1cc(F)cc3c1OCOC3)C(=O)/C2=N\O | 0.24 µM | –
23 | O=C1/C(=N\O)c2c(/C=C/c3ccccc3)cccc2N1Cc1cc(F)cc2c1OCOC2 | – | Ki [2]: 0.23 µM
24 | Nc1ccc2c(c1)N(Cc1cc(F)cc3c1OCOC3)C(=O)/C2=N\O | 0.4 µM | –
25 | CCNC(=O)c1ccc2c(c1)N(Cc1cc(F)cc3c1OCOC3)C(=O)/C2=N\O | 1 µM | –
26 | O=C1/C(=N\O)c2c(Br)cccc2N1Cc1cc(F)cc2c1OCOC2 | 0.185 µM | Ki [2]: > 10 µM; Ki [3]: > 15 µM
27 | C=Cc1cccc2c1/C(=N/O)C(=O)N2Cc1cc(F)cc2c1OCOC2 | 0.14 µM | Ki [2]: 8 µM; Ki [3]: > 15 µM
28 | COC(=O)c1ccc2c(c1)N(Cc1cc(F)cc3c1OCOC3)C(=O)/C2=N\O | 0.16 µM | –
29 | O=C1/C(=N\O)c2c(-c3ccc(F)cc3)cccc2N1Cc1cc(F)cc2c1OCOC2 | 13 µM | Ki [2]: 3.4 µM; Ki [3]: > 15 µM
30 | CS(=O)(=O)Nc1ccc2c(c1)N(Cc1cc(F)cc3c1OCOC3)C(=O)/C2=N\O | 0.46 µM | –

The next lines start with results.

Row | Ki [1] | SMILES | also measured
31 | 0.2 µM | O=C1/C(=N\O)c2ccc(-c3ccccc3)cc2N1Cc1cc(F)cc2c1OCOC2 | –
32 | 0.99 µM | COc1cc(CN2C(=O)/C(=N\O)c3ccccc32)cc(OC)c1 | –
33 | > 10 µM | Cc1cccc(CN2C(=O)/C(=N\O)c3cc(C)ccc32)c1 | –
34 | 0.64 µM | O=C1/C(=N\O)c2ccc([N+](=O)[O-])cc2N1Cc1cc(F)cc2c1OCOC2 | –
35 | 8.3 µM | O=C1/C(=N\O)c2ccccc2N1Cc1ccc(F)cc1 | –
36 | 0.51 µM | O=C1/C(=N\O)c2ccccc2N1Cc1cc(F)cc2c1OCOC2 | –
37 | > 30 µM | Cc1ccc2c(c1)/C(=N/O)C(=O)N2c1ccccc1 | –
38 | 6.8 µM | Cc1cccc(CN2C(=O)/C(=N\O)c3ccccc32)c1 | –
39 | > 10 µM | O=C1/C(=N\O)c2cc(F)ccc2N1Cc1ccccc1 | –
40 | > 15 µM | O=C1/C(=N\O)c2c(CCc3ccccc3)cccc2N1Cc1cc(F)cc2c1OCOC2 | Ki [2]: 0.03 µM; Ki [3]: > 15 µM
41 | 7 µM | O=C1/C(=N\O)c2ccccc2N1Cc1ccc([N+](=O)[O-])cc1 | –
42 | > 10 µM | Cc1ccc2c(c1)/C(=N/O)C(=O)N2Cc1ccccc1 | –
43 | 8.5 µM | O=C1/C(=N\O)c2ccccc2N1Cc1ccccc1F | –
44 | > 10 µM | O=C1/C(=N\O)c2ccccc2N1Cc1ccccc1[N+](=O)[O-] | –
45 | 8.1 µM | O=C1/C(=N\O)c2ccccc2N1Cc1cccc(F)c1 | –
46 | 1.6 µM | COc1ccc(CN2C(=O)/C(=N\O)c3cc(F)ccc32)cc1 | –
47 | 0.94 µM | O=C1/C(=N\O)c2ccccc2N1Cc1cccc([N+](=O)[O-])c1 | –
48 | 12 µM | O=C1/C(=N\O)c2cc(Cl)ccc2N1Cc1ccccc1 | –

Reference: ChEMBL document CHEMBL1153595, “Structure-based design and parallel synthesis of N-benzyl isatin oximes as JNK3 MAP kinase inhibitors” (Bioorg Med Chem Lett, 2009)
